The source of these data is article PMC8196714, “Design, Radiosynthesis and Preliminary Biological Evaluation in Mice of a Brain-Penetrant ^18F-Labelled σ2 Receptor Ligand” (International Journal of Molecular Sciences, 2021).

Data set [1] is described as follows: Dynamic PET imaging in CD1 mice. In kind it is in vivo. Conditions: i.v. The protocol:
As expected by the optimal lipophilicity of [^18F]RM273 (see 2.3, [43]) the PET images and the time–activity curve obtained for the whole brain shown in Figure 6 indicate a fast permeation of the BBB with a mean standardized uptake value (SUV) of 1.3 ± 0.4 at 2.25 min p.i. (n = 4).
The biodistribution of [^18F]RM273 in mice was assessed by dynamic small animal PET (Nanoscan, Mediso, Budapest, Hungary) 60 min recordings, followed by T1 weighted (GRE, TR/TE = 15.0/2.4 ms, 252/252, FA = 25°) imaging for anatomical correlation and attenuation correction. The mice weighing 31.7 ± 3.8 g were anaesthetized with 2% isoflurane in 60% oxygen and placed on a thermostatically heated animal bed. [^18F]RM273 (7.2 ± 1.1 MBq) was injected i.v. into the lateral tail vein (bolus within 5 s) at the start of the PET-acquisition. List mode PET data were binned as a series of attenuation-corrected sinogram frames (12 × 10 s, 6 × 30 s, 5 × 60 s and 10 × 300 s) and were reconstructed by Ordered Subset Expectation Maximization (OSEM3D) with four iterations, six subsets, and a voxel size of 0.4 mm^3 (Nucline v2.01, Mediso, Hungary). The analysis of reconstructed datasets was performed with PMOD software (v4.103, PMOD Technologies LLC, Zurich, Switzerland). […]

For the next data set, the target named is T1, σ2 receptor (Rattus norvegicus, UniProt Q5U3Y7).
T1 sequence (Q5U3Y7 1-176): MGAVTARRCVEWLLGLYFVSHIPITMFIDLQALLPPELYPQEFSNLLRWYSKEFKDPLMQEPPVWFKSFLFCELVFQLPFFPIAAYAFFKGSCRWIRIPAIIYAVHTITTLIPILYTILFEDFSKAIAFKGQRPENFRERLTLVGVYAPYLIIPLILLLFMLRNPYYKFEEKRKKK
In words: In vitro autoradiography on rat brain cryosections (healthy and orthotopic F98 glioblastoma). The class given is binding. Details: from tissue; host or cells: rat brain cryosections (SPRD healthy; Fisher F344 with orthotopic F98 glioblastoma). To be noted: for specific binding sites: at 1.5 nM [18F]RM273; for Kd: rat brain cryosections, n = 2. From the text:
Initially, we investigated the binding of [^18F]RM273 on rat brain slices by autoradiography to compare the distribution pattern with that of established σ2 receptor ligands and to examine the target specificity. The highest binding was found in the cortical areas and hippocampal structures. […] Accordingly, we proceeded to investigate, in a rat glioblastoma model, the potential suitability of [^18F]RM273 for molecular characterization of cancer. At first, homologous competition studies using membrane homogenates of the rat glioma cell line F98 were performed to determine the σ2 receptor binding parameters of [^18F]RM273 cells (Figure 3).
We subsequently investigated the binding parameters of [^18F]RM273 by in vitro autoradiography using cryosections of rat brains obtained three weeks after stereotactic implantation of F98 rat glioblastoma cells into the left striatum. Initially, we performed a homologous displacement study to directly compare the binding sites of the new radioligand in a healthy brain and a brain tumor. The inhibition curves presented in Figure 3 indicate binding of [^18F]RM273 to single binding sites in both brain regions. […] Further supporting the assumption of a tumor-specific overexpression of σ2 receptors, a remarkably high density of binding sites of [^18F]RM273 in the F98 tumor tissue was observed (Figure 4). Compared to the healthy tissue (contralateral side), about three times more specific binding sites of [^18F]RM273 were estimated for the tumor region (32 × 10^−9 mol/L vs. 94 × 10^−9 mol/L at 1.5 nM [^18F]RM273).
In vitro autoradiography was performed using cryosections of brains of a healthy rat (SPRD, female, 250 g; Medizinisch-Experimentelles Zentrum, Universität Leipzig, Leipzig, Germany) and brains obtained from rats (Fisher F344/HanZtmRj, male, ≈260 g; Janvier Labs, Le Genest-Saint-Isle, France) 23 days after stereotactic implantation of 5 × 10^4 F98 cells in the […] striatum (n = 2).
Immediately after isolation, the brains were frozen by immersion in isopentane at −25 °C. Cryosections of 12 μm (Microm HM560 cryostat, Thermo Scientific, Schwerte, Germany) were mounted on microscopic glass slides, dried at room temperature, and stored at −25 °C. For the experiment, the slices were dried at room temperature under a stream of cold air before pre-incubation in PBS, pH 7.4, at room temperature for 15 min. […] Co-incubation with serial dilutions of RM273 (10^−10–10^−6 M) was performed to determine an inhibition curve. After 60 min, the incubation at room temperature was terminated by decanting and washing the slides by two consecutive incubations in ice-cold washing buffer (50 mM TRIS-HCl, pH 7.4 at 4 °C) for two min each, followed by dipping in ice-cold demineralized water for 5 sec and drying under a stream of cold air. In parallel, for subsequent quantification of the data obtained from the homologous competition experiment, defined volumes, and thus defined activities of the radioligand solution, were pipetted onto a microscopic glass slide (0.5–3 μL = 0.0355–0.213 kBq) and dried. Afterwards the tissue samples along with the standards were exposed to an ^18F-sensitive phosphor screen (ABC) for two hours. Image acquisition was performed using a phosphorimager (HD-CR 35; DÜRR NDT GmbH & Co. KG, Bietigheim-Bissingen, Germany). Analysis of the digitized images was performed by image analysis software (AIDA; Elysia-raytest GmbH, Straubenhardt, Germany).
Irregular regions of interest (ROI) were drawn on the standard spots and the different brain regions, which were confirmed by Nissl staining of the identical brain sections. Optical density measured in each ROI was expressed as quantum levels per unit area (QL/pixel) with a pixel size of 12.5 μm^2. From the calibration curve obtained from the standards by plotting QL vs. activity, the QL values of the ROIs were converted to activity values followed by conversion to chemical concentration of RM273 based on the molar activity of [^18F]RM273. […]

For orientation: Kd means a measure of binding affinity in units of concentration.

Each structure is given as a SMILES string.

Take `COc1cc2c(cc1OC)CN(CCCCn1ccc3ccc([18F])nc31)CC2` [[^18F]RM273]: in data set [1] (2.25 min p.i., n = 4), the “mean standardized uptake value (SUV), whole brain” value was 1.3 ± 0.4. In data set [1] (60 min PET), the “peak-to-endpoint ratio, brain” value is 6.4 ± 0.9. Besides, the specific binding sites stood at 9.4e-08 mol/L on σ2 receptor (F98 tumor region) and 3.2e-08 mol/L at σ2 receptor (healthy tissue (contralateral side)). In addition, the Kd on σ2 receptor (contralateral striatum / contralateral brain) came out at 2.93 nM; at σ2 receptor (orthotopically grown F98 tumor region) it was 4.82 nM.
